The text below walks through data of PMC5059467, “Anti-tubulin drugs conjugated to anti-ErbB antibodies selectively radiosensitize” (Nature Communications, 2016).

In series [1] the test system is OE19 cells. Briefly: Neutral comet assay after IR, OE19 cells. It counts as cell-based, human. Here is the method: (§1) Cells were collected 15 min post IR, suspended in agarose gel and lysed per assay directions (Trevigen). Samples underwent electrophoresis under neutral conditions and were then stained with Sybr Green. Comet tails were counted in multiple fields (>60 cells per sample) and analysed using CometScore (TriTek Corp). Comet tail length was normalized to vehicle-treated, non-irradiated cells.

The subject of series [2] is CAL-27 cells. Briefly: Cell cycle profile (propidium iodide, flow cytometry), CAL-27 cells. It counts as cell-based, human. The note with it: overnight treatment. Here is the method: (§2) Cells were treated with RNAse, stained with propidium iodide (PI) and analysed by FACS using FloJo software.
Series [3] relates to CAL-27 cells. The experiment in a line: Clonogenic cell survival (SF2), CAL-27 cells. It counts as cell-based, human. The note with it: compared with vehicle. As to the method:
Following IR, cells were counted, re-plated at varying cell numbers in drug-free media. […] Surviving fraction at 2 Gy (SF2) was calculated as the fraction of cells surviving 2 Gy compared with non-irradiated cells.

On the set-up of series [4]: method as in PMID 25681274. Conditions: cited from earlier work.
Series [5] deals with OE19 cells. Briefly: Cell cycle profile (propidium iodide, flow cytometry), OE19 cells. Type of series: cell-based, human. Conditions: overnight treatment. Here is the method: as §2
Background: A flow cytometer gives signals particle by particle.

A further series concerns CAL-27 tumour xenografts. Briefly: CAL-27 tumour xenograft growth with or without IR. It counts as in vivo, mice. Conditions: Fig 4f, 0.5 nmol cetuximab or C-MMAE, 2 nmol free MMAE on day 0. As to the method:
(§3) CAL-27, OE19, NCI N87 and HCT116 tumour xenografts were established and tumour growth was measured with digital calipers. Tumour volume was measured blindly to treatment group and calculated using the formula as ½ × length × width^2. Mice were randomized into groups once the average tumour volume reached >100 mm^3. Mice were assigned to indicated groups in ‘Results'. […] For irradiated mice, the tumour-bearing hindlimbs were focally irradiated while the remainder of the mouse was shielded from IR with custom designed lead blocking >95% of the dose as verified by dosimeters placed on the mouse. […] To prevent unnecessary morbidity, mice were killed if tumour length exceeded 15 mm per protocol. Nonlinear regression least squares fit was used to calculate tumour volume doubling times. […] To minimize the number of mice used, tumours were grown in the bilateral flanks.

The test system of another series is CALU3 cells. The experiment in a line: Neutral comet assay after IR, CALU3 cells. Type of series: cell-based, human. Conditions: 2 nM overnight, 6 Gy, compared with vehicle or 20 nM antibody. As to the method: as §1
Series [6] concerns HCT116 cells. Briefly: Cell cycle profile (propidium iodide, flow cytometry), HCT116 cells. Type of series: cell-based, human. The note with it: overnight treatment. Here is the method: as §2
For series [7], the system named is HCT116 cells. Briefly: Clonogenic cell survival (SF2), HCT116 cells. Type of series: cell-based, human. Conditions: 5 nM overnight then 2 Gy, compared with vehicle. Here is the method: Following IR, cells were counted, re-plated at varying cell numbers in drug-free media. 10–14 days after initial seeding formed colonies were methanol fixed, stained with crystal violet and counted. Surviving fraction at 2 Gy (SF2) was calculated as the fraction of cells surviving 2 Gy compared with non-irradiated cells.

The test system of series [8] is cell lines irrespective of HER2 expression. Briefly: Alamar blue cell viability, cell lines irrespective of HER2 expression. Type of series: cell-based, human. The note with it: fairly consistent across cell lines irrespective of HER2 expression; 72–96 h. A general note: Alamar Blue is a resazurin reagent that responds to reducing activity.
Series [9] deals with HER2+ and HER2− cell lines. The experiment in a line: Neutral comet assay after IR, HER2+ and HER2− cell lines. Type of series: cell-based, human. Conditions: 20 nM overnight, 2 Gy. Here is the method: as §1
Series [10] concerns CAL-27 cells. As to the method:
(§4) Alamar Blue (resazurin) was added to the cells and allowed to incubate for 2–4 h at 37 °C. Plates were analysed using a plate reader with fluorescence measured at 560 nm.

In series [11] the test system is OE19 cells. Briefly: Alamar blue cell viability, OE19 cells. Conditions: HER2+ OE19; 72–96 h. Type of series: cell-based, human.
For the next series, the system named is NCI N87 cells. Conditions: read-out: IC50 (cell viability); HER2+ NCI N87 (gastric cancer); 72–96 h. As to the method:
as §4

The subject of series [12] is HCT116 cells. The note with it: read-out: IC50 (cell viability); HER2- HCT116; 72–96 h. Here is the method:
as §4

A further series has as its system OE19 tumour xenografts. Briefly: OE19 tumour xenograft growth with or without IR. Type of series: in vivo, mice. Conditions: for Tumour doubling time in days (mean, 95% CI): OE19 (HER2+). As to the method: as §3
Another series concerns HCT116 tumour xenografts. The experiment in a line: HCT116 tumour xenograft growth with or without IR. Type of series: in vivo, mice. The note with it: for Tumour doubling time in days (mean, 95% CI): HCT116 (HER2−). As to the method: as §3
Series [13] relates to NCI N87 tumour xenografts. Briefly: NCI N87 tumour xenograft growth with or without IR. It counts as in vivo, mice. The note with it: for Tumour doubling time in days (mean, 95% CI): NCI N87 (HER2+). Here is the method: as §3
The subject of another series is OE19 tumours. Briefly: Immunohistochemistry of OE19 tumour xenografts (pS10 Histone H3, cleaved caspase 3). Type of series: in vivo, mice. Conditions: tumours harvested 48 h after drug.
Setting [14] is: 0.25 nmol (∼1.9 mg kg^−1) day 0, 2.5 Gy days 1, 2 and 3.
[15] abbreviates: 0.25 nmol T-DM1 i.v. day 0, +IR 2.5 Gy on days 1, 2 and 3, extrapolated.

Square brackets hold non-standard residues; d marks the D form. Peptide text beside a SMILES is read from it. * marks the point of attachment. Dolaproine = CO[C@@H]([C@@H]1CCCN1)[C@@H](C)C(=O)O; Dil = CC[C@H](C)[C@H](NC)[C@@H](CC(=O)O)OC; X1 = C[C@@H](N*)[C@@H](O)c1ccccc1; NMeV = CN[C@H](C(=O)O)C(C)C

Method for OE19 tumours: Tissue sections were cut from blocks of formalin-fixed paraffin embedded xenografts. Four micron thick tissue sections were stained with antibodies to phospho-histone H3 (pH3, Abcam, catalogue number ab32107) and cleaved caspase-3 (ClC3, Cell Signaling Technology, catalogue number 9661) and used at dilutions of 1:300 and 1:900, respectively. Slides were stained on a Ventana Discovery Ultra (Ventana Medical Systems, Tucson, AZ, USA). Antigen retrieval was performed using CC1 for 24–40 min at 95 °C. The primary antibodies were incubated on the sections for 1 h at 37 °C. Primary antibodies were visualized used DAB as a chromagen using the UltraMap system (Ventana Medical systems) followed by hematoxylin as a counterstain. Slides were rinsed, dehydrated through alcohol and xylene and coverslipped.
Immunostained slides were scanned using an Axio Scan.Z1 (Zeiss; Oberkochen, Germany). […] Whole-slide images were imported into Definiens Software for quantitative analysis (Definiens; Munich, Germany). […] For analysis of pH3 (a nuclear stain), the total number of nuclei and the total number of nuclei showing DAB staining (pH3 positive cells) were recorded within each ROI. The percent of positive nuclei was then calculated for each sample. For analysis of ClC3 (a cytoplasmic stain), mean DAB chromagen intensity was measured and calculated within the ROI for each sample.

Consider `CC[C@H](C)[C@@H]([C@@H](CC(=O)N1CCC[C@H]1[C@H](OC)[C@@H](C)C(=O)N[C@H](C)[C@@H](O)c1ccccc1)OC)N(C)C(=O)[C@@H](NC(=O)[C@@H](NC)C(C)C)C(C)C` [MMAE, monomethyl auristatin E] (H-[NMeV]V[Dil][Dolaproine]-X1), for which the “effect on IR induced comet tail length” value in the series on OE19 cells [1] (2 nM overnight, 6 Gy, compared with vehicle, 20 nM antibody or 2 nM C-MMAE) is “further increased comet tail length”; in the series with CALU3 cells, “increased comet tail length to a similar degree”. In addition, the “cell cycle profile (G2/M)” value in the series with CAL-27 cells [2] and in the series on OE19 cells [5] was “accumulating in G2/M” throughout. Besides, the “surviving fraction following 2 Gy (SF2)” value with CAL-27 cells [3] (drug overnight then 2 Gy) is on record as “decreased”. The “concentration level effective as radiosensitizer” value in series [4] is “single nM level”. Moreover, in the series with CAL-27 tumour xenografts (day 35, + IR 3 Gy on days 1 and 2), the “Mean Diff. Control vs. treatment + IR (Tukey's multiple comparisons, tumour volume)” value was found to be 246.7. In addition, in the series with CAL-27 tumour xenografts (day 35, no IR), the “Mean Diff. Control vs. treatment (Tukey's multiple comparisons, tumour volume)” value amounted to 272.

For `COc1cc2cc(c1Cl)N(C)C(=O)C[C@H](OC(=O)[C@H](C)N(C)C(=O)CCS)[C@]1(C)O[C@H]1[C@H](C)[C@@H]1C[C@@](O)(NC(=O)O1)[C@H](OC)/C=C/C=C(\C)C2` [mertansine], the “surviving fraction following 2 Gy (SF2)” value with CAL-27 cells [3] (5 nM mertansine overnight then 2 Gy) and with HCT116 cells [7] was “decreased further” in each case. Also, the “cell cycle profile (G2/M)” value with HCT116 cells [6] and with OE19 cells [5] was “increased the accumulation” in each case. Moreover, the IC50 in series [8] was ~0.01 µM. Also, the “radiosensitization (IR induced DNA double-strand breaks, comet tail length)” value in [9] is “radiosensitized by increasing IR induced DNA double-strand breaks in both HER2+ and HER2− cell lines”.

For `CC(=O)O[C@H]1C(=O)[C@@]2(C)[C@H]([C@H](OC(=O)c3ccccc3)[C@]3(O)C[C@H](OC(=O)[C@H](O)[C@@H](NC(=O)c4ccccc4)c4ccccc4)C(C)=C1C3(C)C)[C@]1(OC(C)=O)CO[C@@H]1C[C@@H]2O` [paclitaxel], the “cytotoxic potency, paclitaxel compared with T-DM1” value in the series with CAL-27 cells [10] (HER2- CAL-27 cells, 96 hours) was “more potent than T-DM1”.

In the case of ado-trastuzumab emtansine [T-DM1], the IC50 with OE19 cells [11] is < 0.001 µM; in the series with NCI N87 cells it was < 0.001 µM; in the series with HCT116 cells [12], > 0.1 µM; in the series on CAL-27 cells [10] (read-out: IC50 (cell viability), HER2- CAL-27, 72–96 h), > 0.1 µM. Moreover, the “radiosensitization (comet tail length)” value in the series on OE19 cells [1] (2 nM T-DM1, irradiated OE19 (HER2+)) is “radiosensitized”. In addition, the “tumour regression with T-DM1 and IR” value (in the series with OE19 tumour xenografts (setting [14]); in series [13] (setting [14])) was “significantly prolonged tumour regression” each time. The “Tumour doubling time in days (mean, 95% CI)” value is 66 (33+) days in the series on OE19 tumour xenografts (setting [15]); 11 (8–17) days in the series with OE19 tumour xenografts (0.25 nmol i.v. day 0, no IR); 7 (5–12) days in the series on HCT116 tumour xenografts (0.25 nmol i.v. day 0, +IR 2.5 Gy on days 1, 2 and 3); 3 (2–5) days with HCT116 tumour xenografts (0.25 nmol i.v. day 0, no IR); 113 (82–179) days in series [13] (setting [15]); 23 (21–25) days in series [13] (0.25 nmol i.v. day 0, no IR). Besides, in the series on OE19 tumour xenografts (single dose of 1 nmol, by day 14), the “slowing of tumour growth compared with control or trastuzumab” value was “equally efficacious in slowing tumour growth”. Moreover, the “cell cycle profile (G2/M)” value is “resembled vehicle-treated cells” in the series on HCT116 cells [6] and “blocked OE19 cells in G2/M” in the series with OE19 cells [5]. In addition, the “benefit of adding T-DM1 to IR” value in the series on HCT116 tumour xenografts (HER2- HCT116, 0.25 nmol day 0, 2.5 Gy days 1, 2 and 3) is on record as “no benefit of adding T-DM1 to IR”. The “radiosensitization (IR induced DNA double-strand breaks, comet tail length)” value in [9] is given as “restricted radiosensitization of HER2+ cells”. For the same molecule, the “cells in G2/M in tumours (pS10 Histone H3 IHC)” value in the series with OE19 tumours was “increased the number of cells in radiosensitive G2/M phase”.

As a reminder, the IC50 is the concentration needed to halve the response being measured.
